Data set [1] can be described thus: Cytotoxicity assay (MTT) on 3T3 mouse fibroblast cells. The class given is cell-based. The following applies: 1-30 μM tested. The method, then:
(§1) Cytotoxicity assay Protocol: Cytotoxic activity of compounds was evaluated in 96-well flat-bottomed micro plates by using the standard MTT (3-[4,5-dimethylthiazole-2-yl]-2,5-diphenyl-tetrazolium bromide) colorimetric assay (15). For this purpose, 3T3 (mouse fibroblast) cells were cultured in Dulbecco's Modified Eagle Medium, supplemented with 5% of fetal bovine serum (FBS), 100 IU/ml of penicillin and 100 μg/ml of streptomycin in 75 cm^2 flasks, and kept in 5% CO2 incubator at 37° C. Exponentially growing cells were harvested, counted with haemocytometer and diluted with a particular medium. Cell culture with the concentration of 5×10^4 cells/ml was prepared and introduced (100 μL/well) into 96-well plates.
(§2) After overnight incubation, medium was removed and 200 μL of fresh medium was added with different concentrations of compounds (1-30 μM). After 48 hrs, 200 ptL MTT (0.5 mg/ml) was added to each well and incubated further for 4 hrs. Subsequently, 100 μLof DMSO was added to each well. The extent of MTT reduction to formazan within cells was calculated by measuring the absorbance at 540 nm, using a micro plate reader (Spectra Max plus, Molecular Devices, Calif., USA). The cytotoxicity was recorded as concentration causing 50% growth inhibition (IC50) for 3T3 cells. The percent inhibition was calculated by using the following formula
(§3) % inhibition=100−((mean of O.D of test compound−mean of O.D of negative control)/(mean of O.D of positive control−mean of O.D of negative control)*100).
(§4) The results (% inhibition) were processed by using Soft-Max Pro software (Molecular Device, USA).

Data set [2] has as its target T1, β-glucoronidase (Escherichia coli, UniProt P05804).
T1 construct: purchased Sigma Aldrich G7396-25KU
The data set is described as follows: β-Glucuronidase inhibition assay (spectrophotometric, p-nitrophenyl-β-D-glucuronide substrate). The following applies: for % inhibition: test concentration not given. The class given is biochemical. The method, then: β-Glucuronidase inhibition assay protocol: Inhibitory activity of β-Glucuronidase was determined with the help of spectrophotometric method by measuring the absorbance at 405 nm of p-nitro phenol formed from the substrate (p-nitro phenyl-β-D-glucuronide, N1627-250 mg, Sigma Aldrich). The total reaction volume was 250 μL. The compound dissolved in DMSO (100%), which becomes 2% in the ultimate assay (250 μL) and the similar conditions were used for standard (D-saccharin acid 1,4-lactone, Sigma Aldrich). The reaction mixture contained 185 μL of 0.1 M acetate buffer, 5 μL of test compound solution, 10 μL of (1U) enzyme solution (G7396-25KU, Sigma Aldrich) was incubated at 37° C. for 30 min. The plates were read on a multiplate reader (SpectraMax plus 384) at 405 nm after the addition of 50 μL of 0.4 mM p-nitrophenyl-β-D-glucuronide. All assays were performed in triplicate. IC50 Values were calculated by using EZ-Fit software (Perrella Scientific Inc., Amherst, Mass., U.S.A.). These values are the mean of three independent readings.

Data set [3] relates to 3T3 (mouse fibroblast) cells. The data set can be described thus: Cytotoxicity assay (MTT) on 3T3 mouse fibroblast cells. The following applies: 48 hrs, 1-30 μM tested. Format: cell-based. The procedure: as §1, §2, §3, §4
[4] abbreviates: β-glucuronidase, 37° C., 30 min incubation, absorbance at 405 nm, mean of three readings, read-out: IC50.

Read-outs that look alike come from different tables or passages of the source. A value given as a limit tells only on which side of the number the result lay.

Here are results for 9 compounds from US20170009272A1, “IN-SILICO BASED TECHNIQUES IN THE IDENTIFICATION OF POTENT ß-GLUCORONIDASE INHIBITORS” (priority 2015, published 2017).

T1 sequence (P05804 whole entry): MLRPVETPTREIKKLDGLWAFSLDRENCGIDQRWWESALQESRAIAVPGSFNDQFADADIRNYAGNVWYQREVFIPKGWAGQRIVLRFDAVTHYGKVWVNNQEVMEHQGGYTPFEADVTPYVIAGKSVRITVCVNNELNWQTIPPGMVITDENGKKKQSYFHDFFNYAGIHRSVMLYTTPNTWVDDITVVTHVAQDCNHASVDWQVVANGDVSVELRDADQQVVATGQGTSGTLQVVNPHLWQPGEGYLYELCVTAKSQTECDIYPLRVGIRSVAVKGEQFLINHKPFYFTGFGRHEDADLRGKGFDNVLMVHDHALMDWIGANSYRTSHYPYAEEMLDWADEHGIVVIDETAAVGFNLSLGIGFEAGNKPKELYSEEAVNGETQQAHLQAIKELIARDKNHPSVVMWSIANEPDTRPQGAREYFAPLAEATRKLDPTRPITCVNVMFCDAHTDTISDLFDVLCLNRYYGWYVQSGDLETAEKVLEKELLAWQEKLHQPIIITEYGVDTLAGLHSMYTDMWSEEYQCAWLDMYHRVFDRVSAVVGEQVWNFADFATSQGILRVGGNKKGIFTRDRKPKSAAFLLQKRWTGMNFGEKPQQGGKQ

As to `Oc1cccc(C(c2c[nH]c3ccc(Br)cc23)c2c[nH]c3ccc(Br)cc23)c1O` [Compound 1], 16.8 ± 0.997 µM corresponded to half-maximal inhibition in data set [1] (IC50 at 48 h). In data set [2], inhibition was half-maximal at 1.2 ± 1.03 µM (IC50). Besides, in data set [2] (β-glucuronidase), the % inhibition – broadly, the percentage by which the read-out fell short of the control – amounted to 97.8%.

Turning to `O=C(/C=C/c1ccc(O)cc1)OC[C@@H]1C[C@H](Oc2cc(O)c3c(=O)cc(-c4ccc(O)cc4)oc3c2)[C@@H](O)[C@H](O)[C@H]1O` [Compound 3], the IC50 (usually the concentration needed to halve the response being measured) at 48 h in data set [1] is more than 30 µM. Further, in data set [2] (setting [4]), the IC50 came out at 4.5 ± 0.44 µM. The “% inhibition” value in data set [2] (β-glucuronidase) is on record as 96.9%.

In data set [1], `COc1ccc(C=NN2C(c3n[nH]c(=S)[nH]3)=C(O)c3ccccc3S2(=O)=O)cc1OC` [Compound 5] gave a half-maximal inhibitory concentration (IC50) at 48 h of 13.8 ± 0.967 µM. In data set [2], this compound returned an IC50 of 11.41 ± 0.04 µM. The “% inhibition” value in data set [2] (β-glucuronidase) amounted to 78.1%.

With `C=S1(=O)c2ccccc2C(O)=C(c2n[nH]c(=S)[nH]2)N1/N=C/c1ccc(OC)c(OC)c1OC` (centres unmarked) [Compound 6], in data set [1], half-maximal inhibition (IC50 at 48 h) required 17.1 ± 1.41 µM. In addition, the IC50 in data set [2] (setting [4]) was 11.8 ± 0.86 µM. The “% inhibition” value in data set [2] (β-glucuronidase) is 81.0%.

`CCN(CC)c1ccc(/C=N/N2C(c3n[nH]c(=S)[nH]3)=C(O)c3ccccc3S2(=O)=O)cc1` [Compound 7] came in with an IC50 at 48 h in data set [1] of more than 30 µM. Also, the IC50 in data set [2] (setting [4]) came to 14.7 ± 1.88 µM. The “% inhibition” value in data set [2] (β-glucuronidase) turned out to be 95.1%.

`COc1cccc(/C=N/N2C(c3n[nH]c(=S)[nH]3)=C(O)c3ccccc3S2(=O)=O)c1O` [Compound 10]: it took 19.5 ± 1.07 µM to reach half-maximal inhibition in data set [3] (IC50). In data set [2] (β-glucuronidase), the “% inhibition” value was 93.4%.

In the case of `N#Cc1ccc2[nH]cc(C(c3ccccc3[N+](=O)[O-])c3c[nH]c4ccc(C#N)cc34)c2c1` [Compound 11], inhibition in data set [1] was half-maximal at 9.56 ± 0.134 µM (IC50 at 48 h). In data set [2], this compound showed an IC50 of 34.9 ± 0.21 µM. Besides, in data set [2] (β-glucuronidase), the “% inhibition” value is on record as 57.3%.

Take `O=C1OC(C(O)C(=O)O)C(O)C1O` [D-sacharric 1,4-lactone, D-saccharic acid, 1,4-lactone, reference compound]: the IC50 in data set [2] (setting [4]) was 45.5 ± 2.16 µM. Further, the “% inhibition” value in data set [2] (β-glucuronidase) came out at 89.4%.

Take `C[C@@H]1C[C@@H]([C@H](O)CC2CC(=O)NC(=O)C2)C(=O)[C@@H](C)C1` [cycloheximide, reference compound]: half-maximal inhibition in data set [1] (IC50 at 48 h) required 0.2 µM.
